The source made the active and inactive calls.
Experiments:
[1] = molecular target: T1, Methionyl-tRNA synthetase, putative (Trypanosoma brucei brucei, UniProt Q38C91); type: functional, Trypanosoma brucei brucei strain 927/4 GUTat10.1
[2] = molecular target: T1, Methionyl-tRNA synthetase, putative; type: functional, Trypanosoma brucei brucei strain 927/4 GUTat10.1; remark: listed apart in the source
[3] = Counterscreen for inhibitors of Trypanosoma brucei methionyl tRNA synthetase (MetRS): Luminescence-based cell-based high throughput dose response assay to identify compounds that are cytotoxic to Jurkat human T lymphocyte cells.; type: functional
[4] = tested on: Vero; experiment: Vero cell toxicity, dose response, cytotoxicity control, plate reader, cherry-pick samples (AID 687020); type: functional, cell-based; details: Chlorocebus sabaeus
[5] = molecular target: Protein S100-A4 (Homo sapiens, UniProt P26447); experiment: S100A4-myosin IIA binding inhibitor potency, dose response, biochemical, fluorescence polarization, cherry-picked hits (AID 687001); type: functional
Protein S100-A4, sequence (P26447 whole entry): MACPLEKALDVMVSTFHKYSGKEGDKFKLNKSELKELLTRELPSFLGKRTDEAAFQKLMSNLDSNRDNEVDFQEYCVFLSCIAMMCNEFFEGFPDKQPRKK

[6] = Luminescence-based cell-based high throughput dose response assay to identify activators of the DAF-12 from the parasite S. stercoralis (ssDAF-12).; type: functional
[7] = molecular target: Paired box protein Pax-8 (Homo sapiens, UniProt Q06710); experiment: inhibitors of PAX8-driven TPO luciferase reporter, dose response, RMG-I cells, cherry-pick (AID 687027); type: functional, cell-based;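 further: luciferase reporter driven by Pax8 target thyroperoxidase promoter measured by SteadyGlo luminescence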
Paired box protein Pax-8, sequence (Q06710 whole entry): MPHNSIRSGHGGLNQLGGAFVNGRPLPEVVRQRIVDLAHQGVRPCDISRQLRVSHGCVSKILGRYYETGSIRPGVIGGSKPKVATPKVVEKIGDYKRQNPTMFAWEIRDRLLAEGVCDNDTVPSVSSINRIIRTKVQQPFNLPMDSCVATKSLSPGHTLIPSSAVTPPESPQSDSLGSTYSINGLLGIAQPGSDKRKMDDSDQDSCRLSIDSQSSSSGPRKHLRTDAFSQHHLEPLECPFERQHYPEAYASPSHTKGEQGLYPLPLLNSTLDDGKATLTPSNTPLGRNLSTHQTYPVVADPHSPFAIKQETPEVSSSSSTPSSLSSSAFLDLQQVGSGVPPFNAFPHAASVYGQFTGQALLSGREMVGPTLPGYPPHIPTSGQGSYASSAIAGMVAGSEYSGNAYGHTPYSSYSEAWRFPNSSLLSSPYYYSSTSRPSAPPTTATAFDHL

[8] = molecular target: T2, Cytochrome P450 1A2 (Homo sapiens, UniProt P05177);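 further: PubChem cytochrome P450 panel assay, CYP1A2 panel member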
T2 sequence (P05177 whole entry): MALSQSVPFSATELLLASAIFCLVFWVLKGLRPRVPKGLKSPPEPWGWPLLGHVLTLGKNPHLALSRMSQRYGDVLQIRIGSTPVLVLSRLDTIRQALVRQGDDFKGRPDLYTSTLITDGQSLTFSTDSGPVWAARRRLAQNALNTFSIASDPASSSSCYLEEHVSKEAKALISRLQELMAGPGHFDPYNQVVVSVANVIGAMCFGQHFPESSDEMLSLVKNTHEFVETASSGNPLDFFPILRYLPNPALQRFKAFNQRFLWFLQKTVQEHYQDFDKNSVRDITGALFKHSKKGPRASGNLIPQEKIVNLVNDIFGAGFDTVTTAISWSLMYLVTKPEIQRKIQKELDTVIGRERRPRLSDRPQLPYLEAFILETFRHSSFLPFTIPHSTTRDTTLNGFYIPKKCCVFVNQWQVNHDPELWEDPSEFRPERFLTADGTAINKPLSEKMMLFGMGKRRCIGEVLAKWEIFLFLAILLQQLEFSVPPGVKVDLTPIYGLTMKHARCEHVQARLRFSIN

[9] = cells; type: functional
[10] = molecular target: T3, Sentrin-specific protease 1 (Homo sapiens, UniProt Q9P0U3); experiment: potency of human SENP1 inhibitors, dose response, biochemical, kinetic FRET (AID 651697); type: functional; details: read-out: IC50_Mean
T3 sequence (Q9P0U3 whole entry, the tested form may be a part): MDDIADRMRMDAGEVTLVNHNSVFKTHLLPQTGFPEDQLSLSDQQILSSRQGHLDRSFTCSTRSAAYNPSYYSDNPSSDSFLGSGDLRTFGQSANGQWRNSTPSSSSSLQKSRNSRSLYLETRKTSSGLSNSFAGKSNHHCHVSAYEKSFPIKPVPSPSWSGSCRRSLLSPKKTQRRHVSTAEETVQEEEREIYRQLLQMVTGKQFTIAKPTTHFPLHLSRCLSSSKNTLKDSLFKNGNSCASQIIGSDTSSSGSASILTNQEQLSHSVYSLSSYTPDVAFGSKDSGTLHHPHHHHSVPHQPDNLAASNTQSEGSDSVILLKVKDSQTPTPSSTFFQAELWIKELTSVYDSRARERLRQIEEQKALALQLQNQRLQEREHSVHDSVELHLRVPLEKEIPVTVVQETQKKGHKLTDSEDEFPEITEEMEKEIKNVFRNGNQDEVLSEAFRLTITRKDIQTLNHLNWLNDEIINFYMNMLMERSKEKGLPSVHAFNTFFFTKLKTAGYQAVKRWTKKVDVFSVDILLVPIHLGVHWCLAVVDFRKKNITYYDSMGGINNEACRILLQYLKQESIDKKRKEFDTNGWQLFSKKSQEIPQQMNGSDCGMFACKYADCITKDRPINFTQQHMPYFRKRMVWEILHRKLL

[11] = molecular target: T3, Sentrin-specific protease 1; experiment: Dose response confirmation of small molecule inhibitors of the catalytic domain of the SUMO protease, SENP1 in a FRET assay.; type: functional; details: read-out: IC50_Mean
[12] = THP-1 cell cytotoxicity, dose response, cytotoxicity control for non-replicating M. tuberculosis project (AID 489025); type: functional
[13] = molecular target: Beta-lactamase (Pseudomonas aeruginosa, UniProt Q79MP6);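 further: biochemical dose-response test of metallo-beta-lactamase enzyme inhibition, read out by epi-absorbance; purified recombinant IMP-1 metallo-beta-lactamase with nitrocefin as substrate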
Beta-lactamase (Pseudomonas aeruginosa, UniProt Q79MP6), sequence (Q79MP6 whole entry): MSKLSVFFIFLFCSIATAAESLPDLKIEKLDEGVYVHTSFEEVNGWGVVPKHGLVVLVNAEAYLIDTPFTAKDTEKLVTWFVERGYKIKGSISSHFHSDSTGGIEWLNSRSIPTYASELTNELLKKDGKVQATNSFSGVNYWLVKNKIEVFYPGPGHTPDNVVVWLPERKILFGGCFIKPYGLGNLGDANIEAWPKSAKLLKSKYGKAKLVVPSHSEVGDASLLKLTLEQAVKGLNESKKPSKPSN

[14] = molecular target: Beta-lactamase (Salmonella choleraesuis (strain SC-B67), UniProt Q5J463)
Beta-lactamase (Salmonella choleraesuis (strain SC-B67), UniProt Q5J463), sequence (Q5J463 whole entry): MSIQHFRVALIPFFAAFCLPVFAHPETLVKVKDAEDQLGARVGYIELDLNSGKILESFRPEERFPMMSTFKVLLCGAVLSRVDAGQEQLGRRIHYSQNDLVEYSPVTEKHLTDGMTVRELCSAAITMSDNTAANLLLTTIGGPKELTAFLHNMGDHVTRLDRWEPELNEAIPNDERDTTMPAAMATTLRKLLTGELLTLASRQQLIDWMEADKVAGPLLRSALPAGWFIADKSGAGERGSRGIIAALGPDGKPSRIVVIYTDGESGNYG

[15] = tested on: INS1; experiment: beta cell apoptosis inhibitors, cytokine rescue, dose response, luminescence, retest (AID 449756); type: functional, cell-based; details: Rattus norvegicus;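 further: cell death triggered by IL-1 beta plus TNF-alpha plus IFN-gamma mixture; protective hits raise ATP signal compared with cytokine alone wells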
[16] = HepG2 cell cytotoxicity, dose response, cytotoxicity control for Shn3 inhibitor project, CellTiter-Glo, cherry-picked (AID 624134); type: functional, cell-based
[17] = tested on: BHK-21; experiment: BHK-21 cell toxicity, dose response, cytotoxicity control, plate reader, cherry-pick samples (AID 687030); type: functional, cell-based; details: Mesocricetus auratus
[18] = control 3'UTR Renilla luciferase suppression, dose response, counter-screen for Shn3 inhibitor project, cell-based, Clone20-Shn3RL, cherry-picked (AID 624133); type: functional
[19] = tested on: A549; experiment: A549 cell toxicity, dose response, cytotoxicity control, plate reader, cherry-pick samples (AID 687028); type: functional, cell-based; details: Homo sapiens
[20] = Shn3 3'UTR reporter inhibitors, dose response, cell-based, Clone20 osteoblasts, firefly luciferase, cherry-picked (AID 624132); type: functional;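 further: firefly luciferase luminescence from reporter carrying the Shn3 3'UTR in osteoblasts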
[21] = molecular target: T4, Caspase-3 (Homo sapiens, UniProt P42574); experiment: Dose-response confirmation of uHTS inhibitor hits of Sentrin-Specific Protease 8 in a Caspase-3 Fluorescence assay.; type: functional
T4 sequence (P42574 whole entry): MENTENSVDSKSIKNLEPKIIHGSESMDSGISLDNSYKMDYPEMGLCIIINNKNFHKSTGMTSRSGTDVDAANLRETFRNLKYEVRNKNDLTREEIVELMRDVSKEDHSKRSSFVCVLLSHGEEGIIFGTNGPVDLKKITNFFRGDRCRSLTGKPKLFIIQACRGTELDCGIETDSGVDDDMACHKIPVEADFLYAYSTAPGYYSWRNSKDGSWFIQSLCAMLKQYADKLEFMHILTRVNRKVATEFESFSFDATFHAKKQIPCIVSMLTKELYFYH

[22] = molecular target: T5, Sentrin-specific protease 8 (Homo sapiens, UniProt Q96LD8); type: functional
T5 sequence (Q96LD8 whole entry): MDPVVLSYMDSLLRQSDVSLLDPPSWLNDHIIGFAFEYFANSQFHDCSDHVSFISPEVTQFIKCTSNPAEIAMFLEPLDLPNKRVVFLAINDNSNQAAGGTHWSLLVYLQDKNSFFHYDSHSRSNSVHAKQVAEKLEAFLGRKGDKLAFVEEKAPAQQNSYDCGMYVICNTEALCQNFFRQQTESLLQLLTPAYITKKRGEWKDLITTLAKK

[23] = molecular target: T5, Sentrin-specific protease 8; type: functional; remark: listed apart in the source

T1 sequence (Q38C91 whole entry): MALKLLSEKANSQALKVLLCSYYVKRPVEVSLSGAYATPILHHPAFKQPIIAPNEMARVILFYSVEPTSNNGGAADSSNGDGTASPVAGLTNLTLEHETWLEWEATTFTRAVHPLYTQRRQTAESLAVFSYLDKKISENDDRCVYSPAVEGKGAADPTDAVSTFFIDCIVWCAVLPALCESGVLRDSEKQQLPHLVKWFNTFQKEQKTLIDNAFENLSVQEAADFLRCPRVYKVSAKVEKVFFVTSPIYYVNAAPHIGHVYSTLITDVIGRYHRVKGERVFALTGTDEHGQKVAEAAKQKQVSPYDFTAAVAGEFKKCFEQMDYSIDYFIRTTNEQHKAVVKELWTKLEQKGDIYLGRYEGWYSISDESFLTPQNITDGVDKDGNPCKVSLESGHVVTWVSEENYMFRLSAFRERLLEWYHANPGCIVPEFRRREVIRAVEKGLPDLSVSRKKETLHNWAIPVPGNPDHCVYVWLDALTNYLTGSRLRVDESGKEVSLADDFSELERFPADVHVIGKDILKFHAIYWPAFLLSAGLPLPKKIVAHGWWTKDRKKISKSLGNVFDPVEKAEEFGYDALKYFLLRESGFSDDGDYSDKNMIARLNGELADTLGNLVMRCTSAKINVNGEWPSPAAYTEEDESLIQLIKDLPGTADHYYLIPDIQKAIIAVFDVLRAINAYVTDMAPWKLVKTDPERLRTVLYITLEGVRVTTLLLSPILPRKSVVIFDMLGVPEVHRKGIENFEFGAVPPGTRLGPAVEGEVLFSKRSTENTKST

Compound: Cc1cc(C)c(O)c(-c2cc(C(=O)NCCc3ccc(S(N)(=O)=O)cc3)[nH]n2)c1
- IC50 [1]: 39.5 µM (inactive)
- IC50 [2]: 70.9 µM (inactive)
- IC50 [3]: 83.3 µM (inactive)

Compound: COc1cc(C)ccc1OCc1cc(C(=O)NCCN2CCCC(O)C2)no1 (stereo not drawn)
- AC50 [4]: 30 µM (active)

Compound: CC(=O)[C@@]1(O)Cc2c(O)c3c(c(O)c2[C@H](O[C@H]2C[C@H](N)[C@H](O)[C@H](C)O2)C1)C(=O)c1ccccc1C3=O
- AC50 [5]: 0.412 µM (active)
- IC50 [6]: > 67.5 µM (inactive)
- AC50 [7]: 3.77 µM (active)
- AC50 [8]: 20 µM (inconclusive)

Compound: O=C(Nc1nccs1)c1cc2cc(Cl)ccc2oc1=O
- IC50 [9]: 1.37 µM (active)
- IC50 [10]: 1.84 µM (active)
- IC50 [11]: 3.49 µM (active)

Compound: N=C1/C(=C\c2coc3ccccc3c2=O)C(=O)N=C2SC=CN12
- CC50 [12]: > 40 µM (active)
- IC50 [13]: 36.4 µM (inactive)
- IC50 [14]: > 59.6 µM (inactive)

Compound: CC(=O)NC(c1cc(Cl)c2cccnc2c1O)C(C)C (stereo not drawn)
- AC50 [15]: 1.76 µM (active)
- AC50 [16]: 5.13 µM (active)
- AC50 [17]: 21.6 µM (active)
- AC50 [18]: 2.71 µM (active)
- AC50 [19]: 23.5 µM (active)
- AC50 [20]: 2.96 µM (active)

Compound: COc1ccc(NC(=O)[C@@H]2[C@@H]3C(=O)N(C4CCCCC4)C(=O)[C@@H]3C3c4ccccc4C=CN32)cc1 (stereo partly drawn)
- IC50 [21]: 10.8 µM (active)
- IC50 [22]: 16.3 µM (active)
- IC50 [23]: 4.79 µM (active)
